Where two headings read alike, the source gives them in different places.
How the values were obtained:
thymus = type: in vivo, rat (Wistar, young male)
Protocol: The thymolytic effects have been examined by means of a test, the principle of which is as follows:
The repeated administration of a gluco-corticoid having a systemic activity causes an involution of the defence system of the organism, of which two organs belong to the reticulo-endothelial system, the spleen and the thymus, this latter being the most sensitive to this action, especially with young animals. The thymic involution is estimated by weighing.
The various products were injected daily by the oral or the sub-cutaneous route for four days, to young male rats of Wistar-strain, the initial weight of which was between 45 and 55 grams, distributed at random by groups of ten.
The products under study were administered at a volume of 0.2 ml. per animal for both methods, in suspension in:
Carboxy-methyl-cellulose at 5 % for sub-cutaneous injection;
Gum arabic at 5 % for the oral route.
The animals of the reference groups received the same volume of the corresponding vehicle.
Ninety-six hours after the first administration, the animals were killed, the thymus glands being taken and weighed immediately.
(§1) For each animal, the weight of the thymus has been brought to 100 grams of body weight. The thymolytic activity of the products under study was then expressed as a percentage of regression of the thymus with respect to the animals of the reference group and the ED50 of each product tested was estimated by transferring the percentage inhibition obtained for each dose on semi-logarithmic paper.

granuloma / thymus = experiment: Ratio of the local anti-inflammatory activity to the thymolytic activity; type: in vivo, rat (Wistar); conditions: for ED50 anti-proliferative activity / ED50 thymolytic activity (sub-cutaneous route): thymolytic activity determined by sub-cutaneous route; for ED50 anti-proliferative activity / ED50 thymolytic activity (oral route): thymolytic activity determined by the oral route
Protocol: The DE50 were calculated by transferring the results on to semi-logarithmic paper.
as §1
The ratio is indicated in Tables VII, VIII and IX which follow: […]

[1] = tested on: exudate in carrageenan air pouch; experiment: Anti-exudative action, carrageenan air pouch; type: in vivo, rat (Wistar, male); conditions: injected into the air pouch 96 h after carrageenan; exudate measured 96 h later
Protocol: The anti-exudative activity was brought into evidence by means of a test, the principle of which is as follows.
This test consists of creating, under the dorsal skin of the rat an air pouch in which an irritant product is injected. An inflammatory reaction appears rapidly and is shown by the accumulation of liquid in the pouch of air.
The introduction of an anti-inflammatory product into the air pouch reduced, more or less completely, the accumulation of exudate.
This study was carried out with male rats of the Wistar strain, the initial weight of which was between 160 and 180 grams, following the technique described by M. Fukuhara and S. Tsurufuji (Bio-Chem. Pharmac. 18, 475-484, 1969). Each lot comprised 10 animals distributed at random.
Twenty-four hours before the beginning of the test, each animal received a sub-cutaneous injection of 6 ml. of air in the dorsal region, previously shaved. […]
Ninety-six hours after this last injection, the animals were killed and the exudate contained in the pouch was collected through a small incision made with a scalpel, and its volume was measured in a test tube.
The difference in volume of the exudate between the animals treated and the reference lot was expressed as a percentage inhibition.

hepatic tissue = experiment: Action on the glucidic metabolism: hepatic glycogen after 96 hours treatment; type: in vivo, rat (Wistar, male); conditions: 18 h water diet
Description: The action on the glucidic metabolism was investigated by means of a test, the principle of which is as follows:
Gluco-corticoid reduce the peripheral needs of the organism in glucose, they also increase the synthesis by the liver of glycogen (neo-glycogenesis). Their action on the glucidic metabolism is thus indicated:
(1) By an increase of glycemia;
(2) by a glycogenic overload on the liver and especially by the persistence of the hepatic shock of glycogen in the food-deprived animal, and treated with a glyco-corticoid by comparison with the non-treated animal.
For this study, Wistar male rats were used; the initial weight of which was between 150 and 160 grams, distributed at random in groups of 10.
The products studied were administered by the oral route in suspension in 5 % gum arabic, under a volume of 0.5 ml. per 100 grams, the animals of the reference group receiving the same volume of vehicles under the same condition.
The treatments were carried out daily for four days, a fifth administration being given seven hours before killing the animals, which took place 96 hours after the first administration.
Immediately after killing the animals, a sample of the hepatic tissue was taken from the central lobe and weighed. Immediately afterwards, it was subjected to digestion in 30 % potassium hydroxide in a boiling water-bath for 20 minutes. The glycogen contained in the digestate was then dosed, following the technique described by R. O. Stafford, L. E. Barnes and Coll. (Proc. Soc. Exp. Med. 39/3, 371-374, 1955).
The content of glycogen in the liver samples has been expressed in grams of glycogen per 100 grams of hepatic tissue.
Table XIII which follows indicates the content of glycogen in the liver with the reference animals and the treated animals for 96 hours after a water diet of 18 hours (see procedure (e)).

[2] = Action on the hydro-mineral metabolism: sodium excretion, 96 hours treatment; type: in vivo, rat (Wistar, male); conditions: for Sodium excreted, average ± standard error: 96 hours treatment, 5 h urine
Description: The action on the hydro-mineral metabolism was examined by means of a test, the principle of which is as follows:
The gluco-corticoids are not all free from mineral-corticoid effects (for example hydro-cortisone). These latter are indicated by:
A reduced renal elimination of sodium (sodium retention);
a loss of potassium (potassium leakage), these two effects reproducing the action of aldosteron.
This study has been carried out on male Wistar rats having weights between 180 and 190 grams.
The animals were distributed at random in groups of ten.
The products under study were administered by the oral route in suspension in 5 % gum arabic. The animals of the reference group received the same volume of vehicle under the same conditions.
The treatments were carried out daily for 4 days.
The renal functional exploratory test was effected […] after the first administration of the product tested.
Eighteen hours before the test, the animals were completely deprived of food and water, this being subsequently maintained up to the end of the test.
Immediately before the renal functional test, the animals received an overdose by the oral route of physiological solution equal to 5 % by volume of their body weight.
The urine passed during five hours was collected for each animal in a polyethylene tube.
The concentration of sodium was determined in each sample by flame photometry; the total quantitt excreted was then calculated as a function of the corresponding volume of urine. The values obtained for each group were then compared following the Fisher Student method with the quantity of sodium excreted by the animals of the reference group.
The results obtained with hydro-cortisone acetate and the JO 1016 in the case of a treatment lasting 96 hours following the procedure (f) are indicated in the following Table XVI.

Compound | ED50 thymolytic activity, sub-cutaneous route (thymus; rat, in vivo, 5760 min) | ED50 thymolytic activity, oral route (thymus; rat, in vivo, po, 5760 min) | ED50 anti-proliferative activity / ED50 thymolytic activity (sub-cutaneous route) (granuloma / thymus) | ED50 anti-proliferative activity / ED50 thymolytic activity (oral route) (granuloma / thymus) | ED50 anti-exudatory activity [1] | Glycogen in hepatic tissue (hepatic tissue; 2 mg/kg oral) | Glycogen in hepatic tissue (hepatic tissue; 5 mg/kg oral) | Glycogen in hepatic tissue (hepatic tissue; 10 mg/kg oral) | Glycogen in hepatic tissue (hepatic tissue; 20 mg/kg oral) | Glycogen in hepatic tissue (hepatic tissue; 50 mg/kg oral) | Sodium excreted, average ± standard error ([2]; 16 mg/kg oral) | ED50 thymolytic activity, oral route (thymus; oral, total dose administered during four days per rat of about 50 g) | ED50 thymolytic activity, sub-cutaneous route (thymus; sub-cutaneous, total dose administered during four days per rat of about 50 g) | Glycogen in hepatic tissue (hepatic tissue; 25 mg/kg oral) | Glycogen in hepatic tissue (hepatic tissue; 100 mg/kg oral) | Sodium excreted, percentage of variation ([2]; 16 mg/kg oral, 96 hours, hydrocortisone acetate 0,001 < p < 0,01, JO 1016 N.S.) | Sodium excreted, average ± standard error ([2]; 32 mg/kg oral) | Sodium excreted, average ± standard error ([2]; 80 mg/kg oral) | Sodium excreted, average ± standard error ([2]; 160 mg/kg oral)
CC(=O)OCC(=O)[C@@]1(O)CC[C@H]2[C@@H]3CCC4=CC(=O)CC[C@]4(C)[C@H]3[C@@H](O)C[C@@]21C [Hydrocortisone (acetate), Hydrocortisone acetate, reference compound] | 0.68 mg | 4 mg | 1.2 | 0.25 | 1,5 mg | 0.19 g/100 g | 0.45 g/100 g | 0.46 g/100 g | 1.26 g/100 g | 2.49 g/100 g | 0,371 ± 0,0827 Meq | – | – | – | – | – | – | – | –
CC(C)(C)C(=O)SCC(=O)[C@@]1(O)CC[C@H]2[C@@H]3CCC4=CC(=O)CC[C@]4(C)[C@H]3[C@@H](O)C[C@@]21C [JO 1016, Dihydroxy-11β, 17α thio-21 dioxo-3,20 pregnene-4-21 pivalate] | – | – | 0.0008 | < 0.003 | 1.5 mg | – | – | – | – | 0.39 g/100 g | 0.820 ± 0.1040 Meq | 400 mg | > 120 mg | 0.25 g/100 g | 0.42 g/100 g | 0,4% | 0.754 ± 0.0465 Meq | 0.684 ± 0.1591 Meq | 0.664 ± 0.0484 Meq

Source: patent US4014909A, “Esters of 21-thiol steroids” (priority 1974, dated 1977)
